# How the values were obtained:
# [1] = biological target: T1, Gonadotropin-releasing hormone receptor (Rattus norvegicus, UniProt P30969); test: Inhibitory concentration towards rat leutinizing releasing hormone receptor
# T1 sequence (P30969 whole entry): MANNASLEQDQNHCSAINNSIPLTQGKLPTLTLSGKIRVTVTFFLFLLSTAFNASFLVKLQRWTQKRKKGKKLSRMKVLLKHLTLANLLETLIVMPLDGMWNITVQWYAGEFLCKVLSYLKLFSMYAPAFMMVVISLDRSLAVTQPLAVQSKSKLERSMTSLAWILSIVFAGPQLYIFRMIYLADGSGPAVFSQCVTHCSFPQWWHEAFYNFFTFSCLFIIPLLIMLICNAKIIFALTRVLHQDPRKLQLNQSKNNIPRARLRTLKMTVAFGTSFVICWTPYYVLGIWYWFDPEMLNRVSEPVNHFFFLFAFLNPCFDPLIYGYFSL
# [2] = biological target: T2, Gonadotropin-releasing hormone receptor (Homo sapiens, UniProt P30968); test: Inhibitory concentration towards human leutinizing releasing hormone receptor
# T2 sequence (P30968 whole entry): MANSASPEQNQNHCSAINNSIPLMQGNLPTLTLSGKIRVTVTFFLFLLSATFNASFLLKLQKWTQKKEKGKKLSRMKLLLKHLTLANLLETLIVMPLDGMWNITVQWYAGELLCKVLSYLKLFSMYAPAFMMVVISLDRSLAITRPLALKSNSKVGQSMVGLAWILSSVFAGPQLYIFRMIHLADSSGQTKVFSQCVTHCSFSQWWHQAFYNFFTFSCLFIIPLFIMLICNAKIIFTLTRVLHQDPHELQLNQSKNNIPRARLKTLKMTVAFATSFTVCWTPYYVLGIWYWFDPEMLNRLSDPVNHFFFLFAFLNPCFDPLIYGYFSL
SMILES,IC50 [1] [nM],IC50 [2] [nM]
O=S(=O)(NCc1ccc(F)cc1)c1ccc2c(c1)nc(C1CC1)n2Cc1ccccc1,1600,1900
CC(C)(C)NC(=O)NCCc1nc2cc(S(=O)(=O)NCc3ccccc3)ccc2n1Cc1ccccc1,310,490
CC(C)(C)NC(=O)NCCc1nc2cc(S(=O)(=O)NCc3ccc(Cl)cc3)ccc2n1Cc1ccccc1,3.9,4.2
CC(C)(C)NC(=O)NCCc1nc2cc(S(=O)(=O)NCc3ccc(F)cc3)ccc2n1Cc1ccccc1,12,20
CC(C)NC(=O)NCCc1nc2cc(S(=O)(=O)NCc3ccc(F)cc3)ccc2n1Cc1ccccc1,79,150
NCCc1nc2cc(S(=O)(=O)NCc3ccc(F)cc3)ccc2n1Cc1ccccc1,> 10000,> 10000
CC(C)c1nc2cc(S(=O)(=O)NCc3ccc(F)cc3)ccc2n1Cc1ccccc1,690,390
CC(C)(C)CC(=O)NCCc1nc2cc(S(=O)(=O)NCc3ccc(F)cc3)ccc2n1Cc1ccccc1,840,2600
CC(C)(C)NC(=O)NCCc1nc2cc(S(=O)(=O)NCc3ccc(F)c(F)c3)ccc2n1Cc1ccccc1,110,170
CC(C)(C)CNC(=O)NCCc1nc2cc(S(=O)(=O)NCc3ccc(F)cc3)ccc2n1Cc1ccccc1,30,110
CCNC(=O)NCCc1nc2cc(S(=O)(=O)NCc3ccc(F)cc3)ccc2n1Cc1ccccc1,380,690
CC(C)(C)NC(=O)NCCc1nc2cc(S(=O)(=O)NCc3ccccc3F)ccc2n1Cc1ccccc1,450,750

# More lines, now with the values ahead:
IC50 [1] [nM],IC50 [2] [nM],SMILES
51,57,CC(C)(C)NC(=O)NCCc1nc2cc(S(=O)(=O)NCc3ccc(C(F)(F)F)c(F)c3)ccc2n1Cc1ccccc1
230,400,CC(C)(C)NC(=O)CCCc1nc2cc(S(=O)(=O)NCc3ccc(F)cc3)ccc2n1Cc1ccccc1
200,340,COc1ccc(CNS(=O)(=O)c2ccc3c(c2)nc(CCNC(=O)NC(C)(C)C)n3Cc2ccccc2)cc1
> 10000,> 10000,CCCc1nc2cc(S(=O)(=O)NCc3ccc(F)cc3)ccc2n1Cc1ccccc1
53,66,O=C(NCCc1nc2cc(S(=O)(=O)NCc3ccc(F)cc3)ccc2n1Cc1ccccc1)Nc1ccccc1F
50,83,O=C(NCCc1nc2cc(S(=O)(=O)NCc3ccc(F)cc3)ccc2n1Cc1ccccc1)Nc1ccccc1Cl
540,740,CC(C)(C)OC(=O)NCCc1nc2cc(S(=O)(=O)NCc3ccc(F)cc3)ccc2n1Cc1ccccc1
83,180,CC(C)(C)NC(=O)NCCCc1nc2cc(S(=O)(=O)NCc3ccc(F)cc3)ccc2n1Cc1ccccc1
14,22,CC(C)(C)NC(=O)NCCc1nc2cc(S(=O)(=O)NCc3ccc(Cl)cc3Cl)ccc2n1Cc1ccccc1

# From ChEMBL document CHEMBL1144305, “Benzimidazole derivatives as novel nonpeptide luteinizing hormone-releasing hormone (LHRH) antagonists. Part 2: Benzimidazole-5-sulfonamides” (Bioorg Med Chem Lett, 2005)
